Results taken from patent US8802720B2, “Acylamino-substituted fused cyclopentanecarboxylic acid derivatives and their use as pharmaceuticals” (SANOFI, priority 2008, dated 2014).

biological target: human Edg-2 receptor (LPA1 receptor) (Homo sapiens, UniProt Q92633); experiment: Edg-2 receptor inhibition by FLIPR calcium fluorescence measurement (LPA-mediated calcium liberation); format: cell-based; settings: CHO cells stably overexpressing human Edg-2 receptor; LPA 18:1 100 nM; fluo-4 fluorescence; triplicate; read-out: Inhibitory concentrations IC50 for inhibition of the Edg-2 receptor
Outline: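 CHO cells stably overexpressing human Edg-2 were fluo-4 loaded and pre-incubated ~5 min with compound (≤0.3% DMSO) in HBSS/HEPES/probenecid, pH 7.5. Then LPA 18:1 at 100 nM final was added. Peak calcium fluorescence over ~3 min, baseline-corrected versus DMSO, gave % inhibition in triplicate and IC50.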

human Edg-2 receptor (LPA1 receptor), sequence (Q92633 whole entry): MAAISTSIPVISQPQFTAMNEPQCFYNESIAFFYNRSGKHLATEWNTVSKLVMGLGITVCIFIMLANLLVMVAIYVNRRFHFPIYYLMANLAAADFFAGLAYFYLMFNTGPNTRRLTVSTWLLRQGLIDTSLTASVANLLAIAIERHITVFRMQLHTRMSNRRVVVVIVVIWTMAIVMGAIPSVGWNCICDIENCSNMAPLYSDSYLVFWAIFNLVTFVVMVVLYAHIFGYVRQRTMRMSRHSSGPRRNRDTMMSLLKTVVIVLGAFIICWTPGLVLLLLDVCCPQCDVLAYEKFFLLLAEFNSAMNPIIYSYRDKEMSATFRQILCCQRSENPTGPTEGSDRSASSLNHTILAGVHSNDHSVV

| SMILES | IC50 [nM] |
| --- | --- |
| COc1ccc(C(=O)NC2(C(=O)O)Cc3ccccc3C2)cc1SCCc1cccc(Cl)c1 [Example 181, 2-{3-[2-(3-Chloro-phenyl)-ethylsulfanyl]-4-methoxy-benzoylamino}-indane-2-carboxylic acid] | < 100 |
| COc1ccc(C(=O)NC2(C(=O)O)Cc3ccccc3C2)cc1SCc1ccccc1 [Example 182, 2-(3-Benzylsulfanyl-4-methoxy-benzoylamino)-indane-2-carboxylic acid] | 1000 to 30000 |
| COc1ccc(C(=O)NC2(C(=O)O)Cc3ccccc3C2)cc1S(=O)(=O)CCc1cccc(C)c1 [Example 183, 2-[4-Methoxy-3-(2-m-tolyl-ethanesulfonyl)-benzoylamino]-indane-2-carboxylic acid] | 1000 to 30000 |
| COc1ccc(C(=O)NC2(C(=O)O)Cc3ccccc3C2)cc1S(=O)(=O)CCc1cccc(Cl)c1 [Example 184, 2-{3-[2-(3-Chloro-phenyl)-ethanesulfonyl]-4-methoxy-benzoylamino}-indane-2-carboxylic acid] | 1000 to 30000 |
| Cc1cccc(CCOc2cc(C(=O)NC3(C(=O)O)Cc4ccccc4C3)ccc2C(F)(F)F)c1 [Example 185, 2-[3-(2-m-Tolyl-ethoxy)-4-trifluoromethyl-benzoylamino]-indane-2-carboxylic acid] | < 100 |
| O=C(NC1(C(=O)O)Cc2ccccc2C1)c1ccc(C(F)(F)F)c(OCCc2cccc(Cl)c2)c1 [Example 186, 2-{3-[2-(3-chloro-phenyl)-ethoxy]-4-trifluoromethyl-benzoylamino}-indane-2-carboxylic acid] | < 100 |
| O=C(NC1(C(=O)O)Cc2ccccc2C1)c1ccc(C(F)(F)F)c(OCCc2c(F)cccc2Cl)c1 [Example 187] | < 100 |
| O=C(NC1(C(=O)O)Cc2ccccc2C1)c1ccc(C(F)(F)F)c(OCCc2cc(F)ccc2F)c1 [Example 188] | < 100 |
| O=C(NC1(C(=O)O)Cc2ccccc2C1)c1ccc(C(F)(F)F)c(OCCc2cc(Cl)ccc2F)c1 [Example 189] | < 100 |
| Cc1nccnc1CCOc1cc(C(=O)NC2(C(=O)O)Cc3ccccc3C2)ccc1C(F)(F)F [Example 190] | 1000 to 30000 |
| O=C(NC1(C(=O)O)Cc2ccccc2C1)c1ccc(C(F)(F)F)c(OCCc2cc(C(F)(F)F)ccc2F)c1 [Example 191] | < 100 |
| Cc1ccc(F)c(CCOc2cc(C(=O)NC3(C(=O)O)Cc4ccccc4C3)ccc2C(F)(F)F)c1 [Example 192] | < 100 |
| COc1ccc(C(=O)NC2(C(=O)O)Cc3ccccc3C2)cc1OCCc1cc(Cl)ccc1F [Example 193, 2-{3-[2-(5-Chloro-2-fluoro-phenyl)-ethoxy]-4-methoxy-benzoylamino}-indane-2-carboxylic acid] | < 100 |
| COc1ccc(C(=O)NC2(C(=O)O)Cc3ccccc3C2)cc1C#Cc1ccc(C(F)(F)F)cc1 [Example 194, 2-[4-Methoxy-3-(4-trifluoromethyl-phenylethynyl)-benzoylamino]-indane-2-carboxylic acid] | 1000 to 30000 |
| COc1ccc(C(=O)NC2(C(=O)O)Cc3ccccc3C2)cc1C#Cc1ccc(C(C)(C)C)cc1 [Example 195, 2-[3-(4-tert-Butyl-phenylethynyl)-4-methoxy-benzoylamino]-indane-2-carboxylic acid] | 100 to 1000 |
| COc1ccc(C(=O)NC2(C(=O)O)Cc3ccccc3C2)cc1-c1cccc(C(C)C)c1 [Example 196, 2-[(3′-Isopropyl-6-methoxy-biphenyl-3-carbonyl)-amino]-indane-2-carboxylic acid] | < 100 |
| COc1ccc(C(=O)NC2(C(=O)O)Cc3ccccc3C2)cc1-c1ccc(CC(C)C)cc1 [Example 197] | 1000 to 30000 |
| COc1ccc(C(=O)NC2(C(=O)O)Cc3ccccc3C2)cc1-c1cccc(Cl)c1 [Example 198] | < 100 |
| COc1ccc(C(=O)NC2(C(=O)O)Cc3ccccc3C2)cc1-c1cccc(CC#N)c1 [Example 199, 2-[(3′-cyanomethyl-6-methoxy-biphenyl-3-carbonyl)-amino]-indane-2-carboxylic acid] | < 100 |
| COc1ccc(C(=O)NC2(C(=O)O)Cc3ccccc3C2)cc1-c1cccc(C(F)(F)F)c1 [Example 200] | < 100 |
| COc1ccc(C(=O)NC2(C(=O)O)Cc3ccccc3C2)cc1-c1ccc(C(C)(C)C)cc1 [Example 201] | 1000 to 30000 |
| CCc1cccc(-c2cc(C(=O)NC3(C(=O)O)Cc4ccccc4C3)ccc2OC)c1 [Example 202] | < 100 |
| COc1ccc(C(=O)NC2(C(=O)O)Cc3ccccc3C2)cc1-c1cccc(NS(=O)(=O)N(C)C)c1 [Example 203] | < 100 |
| COc1ccc(C(=O)NC2(C(=O)O)Cc3ccccc3C2)cc1OCCc1cc(F)ccc1F [Example 204, 2-{3-[2-(2,5-Difluoro-phenyl)-ethoxy]-4-methoxy-benzoylamino}-indane-2-carboxylic acid] | < 100 |
| CCc1ccc(CCOc2cc(C(=O)NC3(C(=O)O)Cc4ccccc4C3)ccc2OC)nc1 [Example 205, 2-{3-[2-(5-Ethyl-pyridin-2-yl)-ethoxy]-4-methoxy-benzoylamino}-indane-2-carboxylic acid] | 1000 to 30000 |

Next, values leading:

| IC50 [nM] | SMILES |
| --- | --- |
| 1000 to 30000 | COc1ccc(C(=O)NC2(C(=O)O)Cc3ccccc3C2)cc1OCCc1scnc1C [Example 206, 2-{4-Methoxy-3-[2-(4-methyl-thiazol-5-yl)-ethoxy]-benzoylamino}-indane-2-carboxylic acid] |
| 1000 to 30000 | COc1ccc(C(=O)NC2(C(=O)O)Cc3nccnc3C2)cc1OCCc1cccc(C)c1 [Example 207, 6-[4-Methoxy-3-(2-m-tolyl-ethoxy)-benzoylamino]-6,7-dihydro-5H-cyclopentapyrazine-6-carboxylic acid] |
| < 100 | COc1ncc(C(=O)NC2(C(=O)O)Cc3ccccc3C2)cc1OCCc1cccc(C)c1 [Example 208, 2-{[6-Methoxy-5-(2-m-tolyl-ethoxy)-pyridine-3-carbonyl]-amino}-indane-2-carboxylic acid] |
| < 100 | COc1ccc(C(=O)NC2(C(=O)O)Cc3ccccc3C2C)cc1OCCc1cccc(C)c1 (stereo not drawn) [Example 209, 2-[4-Methoxy-3-(2-m-tolyl-ethoxy)-benzoylamino]-1-methyl-indane-2-carboxylic acid] |
| 100 to 1000 | COc1ccc(C(=O)NC2(C(=O)O)Cc3ccccc3C2)cc1OCCc1cccc(C(C)(CO)CO)c1 [Example 210, 2-(3-{2-[3-(2-Hydroxy-1-hydroxymethyl-1-methyl-ethyl)-phenyl]-ethoxy}-4-methoxy-benzoylamino)-indane-2-carboxylic acid] |
| < 100 | COc1ccc(C(=O)NC2(C(=O)O)CC3CCCCC3C2)cc1OCCc1cccc(C)c1 (stereo not drawn) [Example 211, 2-[4-Methoxy-3-(2-m-tolyl-ethoxy)-benzoylamino]-octahydro-indene-2-carboxylic acid] |
| < 100 | COc1ccc(C(=O)NC2(C(=O)O)Cc3ccccc3C2)cc1OCC(F)(F)c1cccc(Cl)c1 [Example 212, 2-{3-[2-(3-Chloro-phenyl)-2,2-difluoro-ethoxy]-4-methoxy-benzoylamino}-indane-2-carboxylic acid] |
| < 100 | COc1ccc(C(=O)NC2(C(=O)O)Cc3ccccc3C2)cc1OCC(F)(F)c1ccccc1 [Example 213, 2-[3-(2,2-Difluoro-2-phenyl-ethoxy)-4-methoxy-benzoylamino]-indane-2-carboxylic acid] |
| < 100 | COc1ccc(C(=O)NC2(C(=O)O)Cc3c(F)ccc(F)c3C2)cc1OCCc1cccc(C)c1 [Example 214, 4,7-Difluoro-2-[4-methoxy-3-(2-m-tolyl-ethoxy)-benzoylamino]-indane-2-carboxylic acid] |
| < 100 | COc1ccc(C(=O)NC2(C(=O)O)Cc3cccc(F)c3C2)cc1OCCc1cccc(C)c1 (stereo not drawn) [Example 215, 4-Fluoro-2-[4-methoxy-3-(2-m-tolyl-ethoxy)-benzoylamino]-indane-2-carboxylic acid] |
| < 100 | COc1ccc(C(=O)NC2(C(=O)O)Cc3cccc(C)c3C2)cc1OCCc1cccc(C)c1 (stereo not drawn) [Example 216, 2-[4-Methoxy-3-(2-m-tolyl-ethoxy)-benzoylamino]-4-methyl-indane-2-carboxylic acid] |
| < 100 | COc1ccc(C(=O)NC2(C(=O)O)Cc3cccc(Cl)c3C2)cc1OCCc1cccc(C)c1 (stereo not drawn) [Example 217, 4-Chloro-2-[4-methoxy-3-(2-m-tolyl-ethoxy)-benzoylamino]-indane-2-carboxylic acid] |
| < 100 | COc1ccc(C(=O)NC2(C(=O)O)Cc3ccc(C#N)cc3C2)cc1OCCc1cccc(C)c1 (stereo not drawn) [Example 218, 5-Cyano-2-[4-methoxy-3-(2-m-tolyl-ethoxy)-benzoylamino]-indane-2-carboxylic acid] |
| 1000 to 30000 | COc1ccc(C(=O)NC2(C(=O)O)Cc3ccc(C(N)=O)cc3C2)cc1OCCc1cccc(C)c1 (stereo not drawn) [Example 219, 5-Carbamoyl-2-[4-methoxy-3-(2-m-tolyl-ethoxy)-benzoylamino]-indane-2-carboxylic acid] |
| < 100 | COc1ncc(C(=O)NC2(C(=O)O)Cc3ccccc3C2)cc1-c1cccc(C(C)C)c1 [Example 221, 2-{[5-(3-Isopropyl-phenyl)-6-methoxy-pyridine-3-carbonyl]-amino}-indane-2-carboxylic acid] |
| < 100 | COc1ncc(C(=O)NC2(C(=O)O)Cc3ccccc3C2)cc1-c1cccc(SC)c1 [Example 222, 2-{[6-Methoxy-5-(3-methylsulfanyl-phenyl)-pyridine-3-carbonyl]-amino}-indane-2-carboxylic acid] |
| < 100 | COc1ncc(C(=O)NC2(C(=O)O)Cc3ccccc3C2)cc1-c1cccc(Cl)c1 [Example 223] |
| < 100 | COc1ncc(C(=O)NC2(C(=O)O)Cc3ccccc3C2)cc1-c1cccc(C)c1 [Example 224, 2-{[6-methoxy-5-(3-methyl-phenyl)-pyridine-3-carbonyl]-amino}-indane-2-carboxylic acid] |
| 100 to 1000 | COc1ncc(C(=O)NC2(C(=O)O)Cc3ccccc3C2)cc1-c1ccccc1Cl [Example 225] |
| < 100 | COc1ncc(C(=O)NC2(C(=O)O)Cc3ccccc3C2)cc1-c1ccc(Cl)cc1 [Example 226] |
